Assay results published in patent US9321747B2, “Acid addition salt of substituted pyridine compound” (DAIICHI SANKYO COMPANY, LIMITED, priority 2012, dated 2016).
Where a name gives a salt, the structure may show the parent alone.

Molecular target: recombinant human CETP protein (Homo sapiens (Human), UniProt P11597)
Experiment: Test of CETP inhibition activity (in vitro, buffer-based)
Assay type: biochemical
Details: [14C]-cholesteryl ester transfer from reconstituted HDL to acceptor lipoprotein, 37° C., 60 minutes, PBS buffer
Procedure: Test of CETP Inhibition Activity (In Vitro, Buffer-Based)
(1) Preparation of Reconstituted HDL
Cholesterol (1.125 μmol), phosphatidyl choline (4.5 μmol) and [^14C]-labeled cholesteryl ester (2.0 μCi; 40 μl) were taken in a glass test tube and well mixed with a vortex, and dried under a nitrogen gas current so that it formed a thin film. The obtained mixture was dissolved in ethanol (200 μl), which was designated as Solution A. A PBS solution [a mixed solution of Na2HPO4 (30 mM), KH2PO4 (8.8 mM), NaCl (60 mM) and EDTA (pH 7.4; 0.67 mM); 4 ml] was taken in a tube and the reaction solution was vigorously stirred with a vortex under a nitrogen current. The above-described Solution A was gently injected into this mixture with a syringe and the reaction solution was vigorously stirred with a vortex for 5 minutes under a nitrogen current. Sodium cholate (200 mM; 0.38 ml) was added to the obtained mixture and the reaction solution was stirred for 2 minutes. ApoA-I protein (3 mg) was added to the obtained mixture and the reaction solution was stirred for 2 minutes. The obtained mixture was adjusted to 5 ml with the PBS solution and then dialyzed with the PBS solution. The obtained mixture was designated as the reconstituted HDL.
(2) Preparation of Acceptor Lipoprotein
NaBr was added to the plasma of a healthy person and the density of the mixture was adjusted to 1.019, and the mixture was subjected to density gradient centrifugation (40000 rpm, for 16 hours) to remove the fraction having a density of less than 1.019. NaBr was added to the obtained mixture and the density of the solution was adjusted to 1.063, and the solution was subjected to density gradient centrifugation (40000 rpm, 18 hours) to provide the fraction consisting of IDL (intermediate density lipoprotein) and LDL (1.019<density<1.063). The obtained fraction was dialyzed with the PBS solution. The obtained mixture was designated as the acceptor lipoprotein.
(3) Measurement of CETP Inhibition Activity
A recombinant human CETP protein (manufactured by Roar Biomedical Inc.; 4.5 ng), the acceptor lipoprotein described in (2) above (32.5 μg) and 5,5′-dithio-bis-(2-nitrobenzoic acid) (7 mM, 15 μl) were taken in a 96 well plate and the total amount of the mixture was adjusted to 48.5 μl with the PBS solution. The test compound [DMSO solution (concentration: 0.15, 0.5, 1.5, 5, 15, 50, 150 and 500 μM); 1.5 μl] was added to each well and the mixture was incubated in a thermostatic bath at 37° C. for 60 minutes. The reconstituted HDL (50 μl) described in (1) above was added to each well and the mixture was reacted in a thermostatic bath at 37° C. for 60 minutes. The 96 well plate was moved onto ice and a precipitation reagent [a mixed solution of magnesium chloride (60 mM) and 0.1% dextran sulfate[1/1(v/v)]; 15 μl] was added to each well, and then the mixture was allowed to stand on ice for 15 minutes. The reaction solution (80 μl) in each well was moved to a filter plate and centrifuged at 1500 rpm for 1 minute, and the filtrate which passed through the filter was designated as the HDL fraction and the radioactivity thereof was measured with a scintillation counter. The percentage decrease in radioactivity in the case where the test compound was added in comparison with that in case where the test compound was not added was designated as the percentage CETP inhibition. The IC50 value was calculated from the percentage CETP inhibition.

recombinant human CETP protein, sequence (P11597 18-493): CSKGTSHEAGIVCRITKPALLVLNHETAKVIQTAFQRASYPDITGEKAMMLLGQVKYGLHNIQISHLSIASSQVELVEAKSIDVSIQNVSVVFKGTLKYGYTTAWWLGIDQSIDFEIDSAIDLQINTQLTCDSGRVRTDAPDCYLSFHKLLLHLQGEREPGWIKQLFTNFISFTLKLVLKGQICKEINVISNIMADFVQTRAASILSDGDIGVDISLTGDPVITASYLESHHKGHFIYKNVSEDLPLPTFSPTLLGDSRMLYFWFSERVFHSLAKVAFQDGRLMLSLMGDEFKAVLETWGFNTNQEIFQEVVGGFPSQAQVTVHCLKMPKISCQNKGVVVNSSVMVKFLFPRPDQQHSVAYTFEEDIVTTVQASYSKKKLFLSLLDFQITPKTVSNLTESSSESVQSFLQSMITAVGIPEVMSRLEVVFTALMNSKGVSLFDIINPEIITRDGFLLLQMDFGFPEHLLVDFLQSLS

Row | SMILES | IC50 (dihydrochloride) [nM] | IC50 [nM] | other results
1 | CC1(C)Cc2nc(C3CCN(c4ncc(OCC(CO)CO)cn4)CC3)c([C@@H](F)c3ccc(C(F)(F)F)cc3)c(C3CCC(F)(F)CC3)c2[C@@H](O)C1 [Example 1, (5S)-4-(4,4-Difluorocyclohexyl)-3-{(S)-fluoro[4-(trifluoromethyl)phenyl]methyl}-2-(1-{5-[3-hydroxy-2-(hydroxymethyl)propoxy]pyrimidin-2-yl}piperidin-4-yl)-7,7-dimethyl-5,6,7,8-tetrahydr oquinolin-5-ol dihydrochloride] | 35.2 |  | 
2 | CC1(C)Cc2nc(C3CCN(c4ncc(OCC(CO)CO)cn4)CC3)c([C@@H](F)c3ccc(C(F)(F)F)cc3)c(C3CCC(F)(F)CC3)c2[C@@H](O)C1 [Example 2, (5S)-4-(4,4-Difluorocyclohexyl)-3-{(S)-fluoro[4-(trifluoromethyl)phenyl]methyl}-2-(1-{5-[3-hydroxy-2-(hydroxymethyl)propoxy]pyrimidin-2-yl}piperidin-4-yl)-7,7-dimethyl-5,6,7,8-tetrahydroquinolin-5-ol dihydrobromide] |  | 30.8 | 
3 | CC1(C)Cc2nc(C3CCN(c4ncc(OCC(C)(CO)CO)cn4)CC3)c([C@@H](F)c3ccc(C(F)(F)F)cc3)c(C3CCC(F)(F)CC3)c2[C@@H](O)C1 [Example 3, (5S)-4-(4,4-Difluorocyclohexyl)-3-{(S)-fluoro[4-(trifluoromethyl)phenyl]methyl}-2-(1-{5-[3-hydroxy-2-(hydroxymethyl)-2-methylpropoxy]pyrimidin-2-yl}piperidin-4-yl)-7,7-dimethyl-5,6,7,8-tetrahydroquinolin-5-ol dihydrobromide] |  |  | IC50 (dihydrobromide): 39.3 nM
4 | CC1(C)Cc2nc(C3CCN(c4ncc(OCC(C)(CO)CO)cn4)CC3)c([C@@H](F)c3ccc(C(F)(F)F)cc3)c(C3CCC(F)(F)CC3)c2[C@@H](O)C1 [Example 4, (5S)-4-(4,4-Difluorocyclohexyl)-3-{(S)-fluoro[4-(trifluoromethyl)phenyl]methyl}-2-(1-{5-[3-hydroxy-2-(hydroxymethyl)-2-methylpropoxy]pyrimidin-2-yl}piperidin-4-yl)-7,7-dimethyl-5,6,7,8-tetrahydroquinolin-5-ol dihydrochloride] | 22.3 |  | 
5 | CC1(C)Cc2nc(C3CCN(c4ncc(OCC(C)(CO)CO)cn4)CC3)c([C@@H](F)c3ccc(C(F)(F)F)cc3)c(C3CCC(F)(F)CC3)c2[C@@H](O)C1 [Example 5, (5S)-4-(4,4-Difluorocyclohexyl)-3-{(S)-fluoro[4-(trifluoromethyl)phenyl]methyl}-2-(1-{5-[3-hydroxy-2-(hydroxymethyl)-2-methylpropoxy]pyrimidin-2-yl}piperidin-4-yl)-7,7-dimethyl-5,6,7,8-tetrahydroquinolin-5-ol methanesulfonate] |  | 28.5 | 
6 | CC(C)(O)CCOc1cnc(N2CCC(c3nc4c(c(C5CCC(F)(F)CC5)c3[C@@H](F)c3ccc(C(F)(F)F)cc3)[C@@H](O)CC(C)(C)C4)CC2)nc1 [Example 8, (5S)-4-(4,4-Difluorocyclohexyl)-3-{(S)-fluoro[4-(trifluoromethyl)phenyl]methyl}-2-{1-[5-(3-hydroxy-3-methylbutoxy)pyrimidin-2-yl]piperidin-4-yl}-7,7-dimethyl-5,6,7,8-tetrahydroquinolin-5-ol disuccinate] |  |  | IC50 (disuccinate): 22.7 nM
7 | CC(C)(O)CCOc1cnc(N2CCC(c3nc4c(c(C5CCC(F)(F)CC5)c3[C@@H](F)c3ccc(C(F)(F)F)cc3)[C@@H](O)CC(C)(C)C4)CC2)nc1 [Example 9, (5S)-4-(4,4-Difluorocyclohexyl)-3-{(S)-fluoro[4-(trifluoromethyl)phenyl]methyl}-2-{1-[5-(3-hydroxy-3-methylbutoxy)pyrimidin-2-yl]piperidin-4-yl}-7,7-dimethyl-5,6,7,8-tetrahydroquinolin-5-ol benzenesulfonate] |  | 11.6 | 
8 | CC(C)(O)CCOc1cnc(N2CCC(c3nc4c(c(C5CCC(F)(F)CC5)c3[C@@H](F)c3ccc(C(F)(F)F)cc3)[C@@H](O)CC(C)(C)C4)CC2)nc1 [Example 10, (5S)-4-(4,4-Difluorocyclohexyl)-3-{(S)-fluoro[4-(trifluoromethyl)phenyl]methyl}-2-{1-[5-(3-hydroxy-3-methylbutoxy)pyrimidin-2-yl]piperidin-4-yl}-7,7-dimethyl-5,6,7,8-tetrahydroquinolin-5-ol maleate] |  |  | IC50 (maleate): 13 nM
9 | CC(C)(O)CCOc1cnc(N2CCC(c3nc4c(c(C5CCC(F)(F)CC5)c3[C@@H](F)c3ccc(C(F)(F)F)cc3)[C@@H](O)CC(C)(C)C4)CC2)nc1 [Example 11, (5S)-4-(4,4-Difluorocyclohexyl)-3-{(S)-fluoro[4-(trifluoromethyl)phenyl]methyl}-2-{1-[5-(3-hydroxy-3-methylbutoxy)pyrimidin-2-yl]piperidin-4-yl}-7,7-dimethyl-5,6,7,8-tetrahydroquinolin-5-ol hemifumarate] |  | 28.9 | 
10 | CC1(C)Cc2nc(C3CCN(c4ncc(OC[C@@H](O)CO)cn4)CC3)c([C@@H](F)c3ccc(C(F)(F)F)cc3)c(C3CCC(F)(F)CC3)c2[C@@H](O)C1 [Example 13, (5S)-4-(4,4-Difluorocyclohexyl)-2-[1-(5-{[(2S)-2,3-dihydroxypropyl]oxy}pyrimidin-2-yl)piperidin-4-yl]-3-{(S)-fluoro[4-(trifluoromethyl)phenyl]methyl}-7,7-dimethyl-5,6,7,8-tetrahydroquinolin-5-ol dihydrochloride] | 58.4 |  | 
11 | CC1(C)Cc2nc(C3CCN(c4ncc(OC[C@@H](O)CO)cn4)CC3)c([C@@H](F)c3ccc(C(F)(F)F)cc3)c(C3CCC(F)(F)CC3)c2[C@@H](O)C1 [Example 14, (5S)-4-(4,4-Difluorocyclohexyl)-2-[1-(5-{[(2S)-2,3-dihydroxypropyl]oxy}pyrimidin-2-yl)piperidin-4-yl]-3-{(S)-fluoro[4-(trifluoromethyl)phenyl]methyl}-7,7-dimethyl-5,6,7,8-tetrahydroquinolin-5-ol dihydrobromide] |  | 38.2 | 
12 | CC1(C)Cc2nc(C3CCN(c4ncc(OC[C@H](O)CO)cn4)CC3)c([C@@H](F)c3ccc(C(F)(F)F)cc3)c(C3CCC(F)(F)CC3)c2[C@@H](O)C1 [Example 15, (5S)-4-(4,4-Difluorocyclohexyl)-2-[1-(5-{[(2R)-2,3-dihydroxypropyl]oxy}pyrimidin-2-yl)piperidin-4-yl]-3-{(S)-fluoro[4-(trifluoromethyl)phenyl]methyl}-7,7-dimethyl-5,6,7,8-tetrahydroquinolin-5-ol dihydrochloride] | 38 |  | 
13 | CC1(C)Cc2nc(C3CCN(c4ncc(OC[C@H](O)CO)cn4)CC3)c([C@@H](F)c3ccc(C(F)(F)F)cc3)c(C3CCC(F)(F)CC3)c2[C@@H](O)C1 [Example 16, (5S)-4-(4,4-Difluorocyclohexyl)-2-[1-(5-{[(2R)-2,3-dihydroxypropyl]oxy}pyrimidin-2-yl)piperidin-4-yl]-3-{(S)-fluoro[4-(trifluoromethyl)phenyl]methyl}-7,7-dimethyl-5,6,7,8-tetrahydroquinolin-5-ol dihydrobromide] |  | 28.5 | 
14 | CC1(C)Cc2nc(C3CCN(c4ncc(OCCCS(C)(=O)=O)cn4)CC3)c([C@@H](F)c3ccc(C(F)(F)F)cc3)c(C3CCC(F)(F)CC3)c2[C@@H](O)C1 [Example 17, (5S)-4-(4,4-Difluorocyclohexyl)-3-{(S)-fluoro[4-(trifluoromethyl)phenyl]methyl}-7,7-dimethyl-2-(1-{5-[3-(methylsulfonyl)propoxy]pyrimidin-2-yl}piperidin-4-yl)-5,6,7,8-tetrahydroquinolin-5-ol dihydrochloride] | 10 |  | 
